Source: ChEMBL document CHEMBL5260833, “An overview of quinazolines: Pharmacological significance and recent developments” (Eur J Med Chem, 2018)

These compounds were tested on Rattus norvegicus (assay: Anticonvulsant activity in albino rat at 30 mg/kg, ip measured after 1 hrs by MES test). Settings: not given.
Assay type: functional

Row | Compound | inhibition in vivo at 30 mg/kg
1 | COc1cccc(C2SCC(=O)N2c2nnc(CNn3c(C)nc4ccccc4c3=O)s2)c1 (stereo not drawn) | 60%
2 | Cc1nc2ccc(Br)cc2c(=O)n1NCc1nnc(N2C(=O)CSC2c2ccccc2)s1 (stereo not drawn) | 60%
3 | COc1cccc(/C=N/c2nnc(CNn3c(C)nc4ccccc4c3=O)s2)c1 | 50%
4 | Cc1nc2ccccc2c(=O)n1NCc1nnc(N2C(=O)CSC2c2ccccc2)s1 (stereo not drawn) | 60%
5 | COc1cc(C2SCC(=O)N2c2nnc(CNn3c(C)nc4ccccc4c3=O)s2)ccc1O (stereo not drawn) | 60%
6 | COc1cccc(C2SCC(=O)N2c2nnc(CNn3c(C)nc4ccc(Br)cc4c3=O)s2)c1 (stereo not drawn) | 60%
7 | Cc1nc2ccccc2c(=O)n1NCc1nnc(/N=C/c2ccc(O)cc2)s1 | 50%
8 | Cc1nc2ccc(Br)cc2c(=O)n1NCc1nnc(/N=C/c2ccccc2)s1 | 50%
9 | Cc1nc2ccc(Br)cc2c(=O)n1NCc1nnc(/N=C/c2ccc(O)cc2)s1 | 50%
10 | Cc1nc2ccc(Br)cc2c(=O)n1NCc1nnc(/N=C/c2ccc(N(C)C)cc2)s1 | 50%
11 | COc1ccc(C2SCC(=O)N2c2nnc(CNn3c(C)nc4ccccc4c3=O)s2)cc1 (stereo not drawn) | 60%
12 | COc1ccc(/C=N/c2nnc(CNn3c(C)nc4ccc(Br)cc4c3=O)s2)cc1 | 50%
13 | COc1cc(/C=N/c2nnc(CNn3c(C)nc4ccccc4c3=O)s2)ccc1O | 50%
14 | Cc1nc2ccccc2c(=O)n1NCc1nnc(/N=C/c2ccc(N(C)C)cc2)s1 | 50%
15 | Cc1nc2ccccc2c(=O)n1NCc1nnc(N2C(=O)CSC2c2ccc(O)cc2)s1 (stereo not drawn) | 60%
16 | Cc1nc2ccccc2c(=O)n1NCc1nnc(/N=C/c2ccccc2)s1 | 50%
17 | COc1ccc(/C=N/c2nnc(CNn3c(C)nc4ccccc4c3=O)s2)cc1 | 50%
18 | Cc1nc2ccccc2c(=O)n1NCc1nnc(N2C(=O)CSC2c2ccc(N(C)C)cc2)s1 (stereo not drawn) | 60%
19 | COc1cc(/C=N/c2nnc(CNn3c(C)nc4ccc(Br)cc4c3=O)s2)ccc1O | 50%
20 | Cc1nc2ccc(Br)cc2c(=O)n1NCc1nnc(N2C(=O)CSC2c2ccc(O)cc2)s1 (stereo not drawn) | 60%
21 | COc1ccc(C2SCC(=O)N2c2nnc(CNn3c(C)nc4ccc(Br)cc4c3=O)s2)cc1 (stereo not drawn) | 60%
22 | COc1cccc(/C=N/c2nnc(CNn3c(C)nc4ccc(Br)cc4c3=O)s2)c1 | 50%
23 | Nc1nnc(-c2cccc(Cl)c2Cl)c(N)n1 [LAMOTRIGINE] | 90%
24 | COc1cc(C2SCC(=O)N2c2nnc(CNn3c(C)nc4ccc(Br)cc4c3=O)s2)ccc1O (stereo not drawn) | 60%
25 | Cc1nc2ccc(Br)cc2c(=O)n1NCc1nnc(N2C(=O)CSC2c2ccc(N(C)C)cc2)s1 (stereo not drawn) | 60%

Each compound was assayed on Rattus norvegicus (assay: Antiinflammatory activity in carrageenan induced rat at assessed as reduction in paw edema 50 mg/kg, po relative to control). Settings: not given.
Assay type: functional
Design: scale not given: the % may be the effect or the level left

Row | Compound | Activity
26 | O=C(/C=C/c1ccccc1)NNCc1nc2ccc(Br)cc2c(=O)n1-c1ccccc1 | 10.28%
27 | O=C(/C=C/c1ccccc1)NNCc1nc2ccc(Br)cc2c(=O)n1-c1cccc(Cl)c1 | 10.28%
28 | CN(C)c1ccc(/C=C/C(=O)NNCc2nc3ccccc3c(=O)n2-c2ccccc2Cl)cc1 | 10.28%

What follows are compounds tested on Rattus norvegicus (assay: Anticonvulsant activity in PTZ induced rat at 50 mg/kg, sc measured after 2 to 4 mins relative to control). Settings: time 2-4 min.
Assay type: functional

Row | Compound | Activity
29 | Cc1nc2ccccc2c(=O)n1NCc1nnc(N)s1 | 40%
30 | Cc1nc2ccc(I)cc2c(=O)n1NCc1nnc(N)s1 | 40%
31 | Cc1nc2c(Br)cc(Br)cc2c(=O)n1NCc1nnc(NCC2C(=O)NC(=O)NC2=O)s1 | 60%
32 | Cc1nc2ccccc2c(=O)n1NCC(=O)NNC(=S)NCC1C(=O)NC(=O)NC1=O | 40%
33 | Cc1nc2c(Br)cc(Br)cc2c(=O)n1NCC(=O)NNC(N)=S | 20%
34 | Cc1nc2ccccc2c(=O)n1NCC(=O)NNC(=S)NCC1C(=O)NC(=S)NC1=O | 40%

What follows are compounds tested on Rattus norvegicus (assay: Anticonvulsant activity in ip dosed albino rat measured after 1 hrs). Settings: not given.
Assay type: functional

Row | Compound | Activity
35 | COc1cc(C2CC(Nn3c(C)nc4ccc(Br)cc4c3=O)=NN2C(C)=O)ccc1O (stereo not drawn) | 50%
36 | CC(=O)N1N=C(Nn2c(C)nc3ccccc3c2=O)CC1c1ccccc1 (stereo not drawn) | 50%
37 | Cc1nc2ccccc2c(=O)n1NC(=O)/C=C/c1ccccc1 | 50%
38 | Cc1nc2ccccc2c(=O)n1NC(=O)/C=C/c1ccc(N(C)C)cc1 | 50%
39 | CC(=O)Nn1c(C)nc2ccccc2c1=O | 50%
40 | CC(=O)N1N=C(Nn2c(C)nc3ccc(Br)cc3c2=O)CC1c1ccccc1 (stereo not drawn) | 50%
41 | Cc1nc2ccc(Br)cc2c(=O)n1NC1=NOC(c2ccccc2)C1 (stereo not drawn) | 50%
42 | Cc1nc2ccc(Br)cc2c(=O)n1NC1=NOC(c2ccc(N(C)C)cc2)C1 (stereo not drawn) | 50%
43 | COc1ccc(C2CC(Nn3c(C)nc4ccccc4c3=O)=NN2C(C)=O)cc1 (stereo not drawn) | 50%
44 | COc1ccc(C2CC(Nn3c(C)nc4ccccc4c3=O)=NO2)cc1 (stereo not drawn) | 50%
45 | COc1ccc(/C=C/C(=O)Nn2c(C)nc3ccc(Br)cc3c2=O)cc1 | 50%
46 | COc1cc(C2CC(Nn3c(C)nc4ccccc4c3=O)=NN2C(C)=O)ccc1O (stereo not drawn) | 50%
47 | Cc1nc2ccc(Br)cc2c(=O)n1NC1=NOC(c2ccc(O)cc2)C1 (stereo not drawn) | 50%
48 | COc1cc(/C=C/C(=O)Nn2c(C)nc3ccccc3c2=O)ccc1O | 50%
49 | COc1ccc(C2CC(Nn3c(C)nc4ccc(Br)cc4c3=O)=NN2C(C)=O)cc1 (stereo not drawn) | 50%
50 | Cc1nc2ccccc2c(=O)n1NC1=NOC(c2ccccc2)C1 (stereo not drawn) | 50%

Row | Compound | Activity
51 | CC(=O)Nn1c(C)nc2ccc(Br)cc2c1=O | 50%
52 | CC(=O)N1N=C(Nn2c(C)nc3ccccc3c2=O)CC1c1ccc(O)cc1 (stereo not drawn) | 50%
53 | Cc1nc2ccc(Br)cc2c(=O)n1NC(=O)/C=C/c1ccc(N(C)C)cc1 | 50%
54 | Cc1nc2ccccc2c(=O)n1NC(=O)/C=C/c1ccc(O)cc1 | 50%
55 | Cc1nc2ccc(Br)cc2c(=O)n1NC(=O)/C=C/c1ccc(O)cc1 | 50%
56 | COc1ccc(/C=C/C(=O)Nn2c(C)nc3ccccc3c2=O)cc1 | 50%
57 | CC(=O)N1N=C(Nn2c(C)nc3ccc(Br)cc3c2=O)CC1c1ccc(N(C)C)cc1 (stereo not drawn) | 50%
58 | COc1cc(C2CC(Nn3c(C)nc4ccc(Br)cc4c3=O)=NO2)ccc1O (stereo not drawn) | 50%
59 | COc1cc(/C=C/C(=O)Nn2c(C)nc3ccc(Br)cc3c2=O)ccc1O | 50%
60 | CC(=O)N1N=C(Nn2c(C)nc3ccc(Br)cc3c2=O)CC1c1ccc(O)cc1 (stereo not drawn) | 50%
61 | Cc1nc2ccccc2c(=O)n1NC1=NOC(c2ccc(N(C)C)cc2)C1 (stereo not drawn) | 50%
62 | CC(=O)N1N=C(Nn2c(C)nc3ccccc3c2=O)CC1c1ccc(N(C)C)cc1 (stereo not drawn) | 50%
63 | Cc1nc2ccc(Br)cc2c(=O)n1NC(=O)/C=C/c1ccccc1 | 50%
64 | Cc1nc2ccccc2c(=O)n1NC1=NOC(c2ccc(O)cc2)C1 (stereo not drawn) | 50%
65 | COc1ccc(C2CC(Nn3c(C)nc4ccc(Br)cc4c3=O)=NO2)cc1 (stereo not drawn) | 50%
66 | COc1cc(C2CC(Nn3c(C)nc4ccccc4c3=O)=NO2)ccc1O (stereo not drawn) | 50%

These compounds were tested on Tobacco mosaic virus (assay: Antiviral activity against TMV at 500 microg/ml). Settings: dose 500 µg/ml.
Assay type: functional

Row | Compound | Activity
67 | Cc1nc2ccc(Br)cc2c(=O)n1/C=C/c1c(Cl)cccc1Cl | 54%
68 | Cc1nc2ccc(Br)cc2c(=O)n1/C=C/c1cc(O)cc(Cl)c1 | 54%
69 | O=c1c2ccccc2nc(-c2ccccc2)n1/C=C/c1cc(Cl)cc(Cl)c1 | 54%
70 | Cc1nc2ccc(Br)cc2c(=O)n1/C=C/c1ccc(Cl)cc1Cl | 54%
71 | O=c1c2ccccc2nc(-c2ccccc2)n1/C=C/c1ccc(C(F)(F)F)cc1 | 54%
72 | O=c1c2ccccc2nc(-c2ccncc2)n1/C=C/c1cccc(Cl)c1Cl | 54%
73 | Cc1nc2ccc(Br)cc2c(=O)n1/C=C/c1ccc(F)c(F)c1 | 54%
74 | Cc1nc2ccc(Br)cc2c(=O)n1/C=C/c1ccc(F)cc1 | 54%
75 | O=c1c2ccccc2nc(-c2ccccc2)n1/C=C/c1c(Cl)cccc1Cl | 54%
76 | O=c1c2ccccc2nc(-c2ccccc2)n1/C=C/c1ccc(F)c(F)c1 | 54%
77 | COc1ccc(/C=C/n2c(C)nc3ccc(Br)cc3c2=O)c(OC)c1 | 54%
78 | Cc1nc2ccccc2c(=O)n1/C=C/c1cccc(Cl)c1Cl | 54%
79 | O=c1c2ccccc2nc(-c2ccccc2)n1/C=C/c1cccc(Cl)c1 | 54%
80 | Cc1nc2ccc(Br)cc2c(=O)n1/C=C/c1ccccc1C(F)(F)F | 54%
81 | Cc1nc2ccc(Br)cc2c(=O)n1/C=C/c1ccccc1F | 54%
82 | O=c1c2ccccc2nc(-c2ccccc2)n1/C=C/c1cccc(C(F)(F)F)c1 | 54%

Row | Compound | Activity
83 | COc1cccc(/C=C/n2c(C)nc3ccc(Br)cc3c2=O)c1OC | 54%
84 | COc1ccc(OC)c(/C=C/n2c(C)nc3ccc(Br)cc3c2=O)c1 | 54%
85 | O=c1c2ccccc2nc(-c2ccncc2)n1/C=C/c1ccccc1Cl | 54%
86 | COc1ccc(/C=C/n2c(C)nc3ccc(Br)cc3c2=O)cc1OC | 54%
87 | Cc1nc2ccc(Br)cc2c(=O)n1/C=C/c1cccc([N+](=O)[O-])c1 | 54%
88 | Cc1nc2ccc(Br)cc2c(=O)n1/C=C/c1cccc(C(F)(F)F)c1F | 54%
89 | Cc1nc2ccc(Br)cc2c(=O)n1/C=C/c1ccccc1O | 54%
90 | Cc1nc2ccc(Br)cc2c(=O)n1/C=C/c1cccc(F)c1 | 54%
91 | O=c1c2ccccc2nc(-c2ccccc2)n1/C=C/c1cccc(Cl)c1Cl | 54%
92 | Cc1nc2ccc(Br)cc2c(=O)n1/C=C/c1ccc(Cl)c([N+](=O)[O-])c1 | 54%
93 | O=c1c2ccccc2nc(-c2ccncc2)n1/C=C/c1ccccc1 | 54%
94 | Cc1nc2ccc(Br)cc2c(=O)n1/C=C/c1cc([N+](=O)[O-])ccc1Cl | 54%
95 | Cc1nc2ccc(Br)cc2c(=O)n1/C=C/c1cccc(Cl)c1 | 54%
96 | O=c1c2ccccc2nc(-c2ccncc2)n1/C=C/c1ccc(F)cc1 | 54%
97 | O=c1c2ccccc2nc(-c2ccccc2)n1/C=C/c1ccc(Cl)c([N+](=O)[O-])c1 | 54%

These compounds were tested on Rattus norvegicus (assay: Anticonvulsant activity in rat at 50 mg/kg, ip measured after 1 hrs by MES test relative to control). Settings: not given.
Assay type: functional

Row | Compound | Activity
98 | Cc1nc2ccccc2c(=O)n1NCc1nnc(N)s1 | 40%
99 | Cc1nc2ccc(I)cc2c(=O)n1NCc1nnc(N)s1 | 40%
100 | Cc1nc2c(Br)cc(Br)cc2c(=O)n1NCc1nnc(NCC2C(=O)NC(=O)NC2=O)s1 | 60%
101 | Cc1nc2ccccc2c(=O)n1NCC(=O)NNC(=S)NCC1C(=O)NC(=O)NC1=O | 40%
102 | Cc1nc2c(Br)cc(Br)cc2c(=O)n1NCC(=O)NNC(N)=S | 20%
103 | Cc1nc2ccccc2c(=O)n1NCC(=O)NNC(=S)NCC1C(=O)NC(=S)NC1=O | 40%
